System: human engineered cardiac tissues (human iPSC derived cardiomyocytes co-cultured with human cardiac fibroblasts)
Test: Drug testing of engineered cardiac tissues in Biowire II 96-well plate under electrical pacing (contractile dynamics by wire displacement)
Type: cell-based
Settings: day 19 tissues, n=2 (FIG. 7H)
Procedure: To generate cardiac tissues, human iPSC derived cardiomyocytes co-cultured with human cardiac fibroblasts were seeded with hydrogel in the 96-well plate device. Tissue compaction in the first seven days was observed (FIG. 7A, FIG. 7B), with dramatic change in the first two days followed by stabilization after day 3. Electrical field stimulation of cardiac tissues was initiated at day 7 and continued for the additional 12 days. […] Thapsigargin (50×10^-6 m), an inhibitor of sarcoplasmic reticulum function in cardiomyocytes, was added in the presence of electrical pacing (1.5 Hz), resulting in a prolonged tissue contraction and relaxation time (FIG. 7H). […] Predominantly ventricular cardiomyocytes (CMs) were derived from the hiPSC line BJ1D, using monolayer differentiation protocols as previously described. At day 21 of differentiation, cardiomyocytes were disassociated into single cells with previously established methods. Briefly, 1 mg mL^-1 of collagenase type II (Worthington, LS004205) in Hank's Balanced Salt Solution was added to the monolayer cardiomyocyte cultures and incubated overnight at room temperature. The disassociated cells were mixed with cardiac fibroblasts (Lonza, NHCF-V) in a 10:1 cell number ratio. The mixed cells were pelleted and remixed in collagen hydrogel at 5.5×10^7 cells mL^-1. The cell-gel mixture was seeded at […] per microwell. A droplet of media was placed on the wall of the well to keep the moisture until gelation was complete. The plate was incubated at 37° C. and 5% CO2 for 10 min followed by media addition. […] Average tissue width and width of the tissue (Tw), attachment site to the polymer sensor were measured using bright field images at the relaxed state. Passive displacement of polymer sensors was assessed in blue channel. […] The final readouts for the total and passive forces were interpolated according to the Tw and custom tip sizes. […] With built-in force sensor and electrodes, tissues were able to be assessed in situ in terms of their contractile dynamics and drug responses. […] The videos were analyzed using the custom MATLAB software. […]

[1] = 50×10^−6 m, electrical pacing 1.5 Hz, video 15 min after addition

C/C=C(/C)C(=O)O[C@H]1C(C)=C2[C@H]([C@@H]1OC(=O)CCCCCCC)[C@@](C)(OC(C)=O)C[C@H](OC(=O)CCC)[C@@]1(O)[C@H]2OC(=O)[C@@]1(C)O [Thapsigargin]
tissue contraction time [1]: prolonged | tissue relaxation time [1]: prolonged | frequency of tissue beating (thapsigargin 50 µM, constant stimulation frequency 1.5 Hz): decreased by half

— US20260185025A1, “MICROPHYSIOLOGICAL PLATFORM WITH EMBEDDED ELECTRODES FOR 3D TISSUE CULTURE” (VALO HEALTH, INC., priority 2020, published 2026)
